{"source": "paper PMC11530130", "about": "“Peripherally restricted PICK1 inhibitor mPD5 ameliorates pain behaviors in murine inflammatory and neuropathic pain models” (JCI Insight, 2024)", "key": {"[1]": {"system": "mice, CIBP model (NCTC 2472 cell inoculation)", "test": "CIBP model, limb use score", "assay_type": "in vivo, mouse", "details": "for limb use score (Fig S7B): CIBP mice, individual animals; for effect on limb-use score: CIBP, female mice", "protocol": "(§1) solution (0.05 mg/kg) injected s.c. 30 min before surgery (10 μL/g). For surgery, mice were anaesthetised with ketamine (100 mg/kg, i.p.) and xylazine (10 mg/kg, i.p.) (volume 10 µL/g) with 100 μL of 1% xylocaine solution infiltrated at the site of the incision. The distal trifurcation of the sciatic nerve was identified, and the tibial and common peroneal branches were ligated with polypropylene nonabsorbable 6-0 sutures (Ethicon) and 1 mm was cut out, leaving the sural branch intact. The wound was closed with sutures, and the animals were allowed to recover and returned to their cages. Two subcutaneous injections of buprenorphine (0.05 mg/kg) were performed with an 8 to 12 hours delay decreasing pain due to the surgery […]\n(§2) The remaining SNI pain experiments were performed in-house using the following procedure.\n(§3) SNI surgery was performed on the left hindleg of C57BL/6J male and female mice (Janvier, France) under 2% isoflurane anaesthesia. Skin on the lateral surface was incised between hip and knee followed by lengthwise division of the biceps femoris muscle leading to exposure of the three branches of the sciatic nerve. Sural branch was left intact, while the peroneal and tibial branches were ligated with a single surgical knot and axotomized distally of the ligation.\n(§4) Wounds were closed with surgical glue or medical clips and animals were monitored daily for signs of stress or discomfort, but in all cases recovered uneventfully.\n(§5) Induction of Diabetic neuropathy (STZ model).\n(§6) Diabetes was induced by a single i.p. injection of […] streptozocin (STZ) solution (100 μL/10 g, Sigma-Aldrich S0130, batch #WXBB7152V) in male seven-week-old C57BL/6J (Charles River) mice. Glycemia was tested before, and seven days after injection. All injected mice had blood glucose concentration >350 mg/dL from day seven and were used for analgesic testing of the compounds from day 14. One mouse had to be euthanized at seven days post injection. This experiment was performed by Phenotype Expertise, Marseilles, France - Pain and CNS behaviour CRO under supervision of Stéphane Gaillard, PhD (CEO).\n(§7) Induction of cancer induced bone pain (CIBP model).\n(§8) Osteosarcoma cell line NCTC 2472 (American Type Culture Collection, CCL-11TM) was cultured for two weeks prior to surgery in NCTC-135 medium (Sigma-Aldrich, Denmark) supplemented with sodium hydrogen carbonate and 10% equine serum (Sigma-Aldrich, Denmark). On the day of surgery, cells were washed with PBS and incubated with 3 mL trypsin-EDTA for five min followed by centrifugation (2800 rpm, 3 min). Supernatant was removed, and cell pellet resuspended in PBS to obtain a cell density of 10^7 cells/mL.\n(§9) Two separate cohorts of female C3H/HeNHsd mice (Envigo, Netherlands) of 7-8 weeks, were anaesthetized with 6.25 mg/kg xylazine (Rompun vet, 20 mg/mL, Bayer, KVP Pharma + Veterinär Produkte GmbH, Germany, Batch: KV02BHF) and 43.75 mg/kg ketamine (Ketaminol vet, 100 mg/mL, MSD Animal Health, AN Boxmeer, The Netherlands, Batch:\n(§10) A140A01) and received 1.0-1.2% isoflurane (1000 mg/g isoflurane, Attane vet, ScanVet, Piramal Critical Care Ltd., UK, Batch: G123J18B) during surgery. The mouse was placed on a 37 °C heating pad. Both hind legs were shaved, and a small horizontal incision was made under the knee followed by a vertical incision of approximately 0.5 cm until the patellar tendon was exposed. The patellar tendon was moved to the lateral side exposing the distal epiphysis of the femur. A hole was made in the middle of the distal epiphysis by gently pushing a 30 G needle (0.3x12 mm, 30 Gx1/2”, Luer-Lock, CHIRANA T. Injecta, CH30012) through the bone while rotating. The position of the needle was confirmed by X-ray imaging (IVIS Lumina XR Apparatus, Caliper Life Sciences, Belgium). Following resuspension, 10 μL, corresponding to […]\n(§11) […] NCTC 2472 cells or PBS (sham mice), was injected in the bone marrow cavity with an insulin syringe (1 mL Luer, BD PlastipakTM, 303172) attached to a 30 G needle and left in the […]\n(§12) femur for one min. […]"}, "[2]": {"system": "mice, CIBP model (NCTC 2472 cell inoculation)", "test": "CIBP model, static weight bearing", "assay_type": "in vivo, mouse", "details": "for static weight bearing (Fig S7C): CIBP mice, individual animals; for effect on weight-bearing ratio: CIBP, female mice", "protocol": "as §1, §2, §3, §4, §5, §6, §7, §8, §9, §10, §11, §12"}}, "note": "Several values for one entry are separate records, joined by “and”; a condition that tells them apart may be missing. Equal values may be shown once."}
{"molecule": "CN1CC[C@]23c4c5ccc(O)c4O[C@H]2[C@@H](O)C=C[C@H]3[C@H]1C5", "note": "[morphine]", "values": [{"measurement": "limb use score (Fig S7B)", "setting": "[1]; BL1", "value": 4}, {"measurement": "limb use score (Fig S7B)", "setting": "[1]; BL2", "value": 4}, {"measurement": "limb use score (Fig S7B)", "setting": "[1]; Post (after treatment)", "value": "3 (3×) and 1 (2×) and 2 (4×) and 0"}, {"measurement": "limb use score (Fig S7B)", "setting": "[1]; Pre (before treatment)", "value": "2 (3×) and 1 (5×) and 0 (2×)"}, {"measurement": "effect on limb-use score", "setting": "[1]; s.c. 5 mg/kg", "value": "partial but significant increase"}, {"measurement": "static weight bearing (Fig S7C)", "setting": "[2]; BL1", "value": "50.01 and 50.76 and 43.99 and 53.97 and 55.19 and 55.68 and 51.81 and 54.18 and 46.08 and 56.67"}, {"measurement": "static weight bearing (Fig S7C)", "setting": "[2]; BL2", "value": "47.61 and 46.15 and 51.95 and 48.94 and 50.73 and 54.51 and 47.91 and 45.61 and 50.32 and 52.04"}, {"measurement": "static weight bearing (Fig S7C)", "setting": "[2]; Post (after treatment)", "value": "30.29 and 34.04 and 29.99 and 42.43 and 37.09 and 45.12 and 35.66 and 34.06 and 42.67 and 36.03"}, {"measurement": "static weight bearing (Fig S7C)", "setting": "[2]; Pre (before treatment)", "value": "24.27 and 31.25 and 36.25 and 30.33 and 34.01 and 33.28 and 32.53 and 29.97 and 30.04 and 32.35"}, {"measurement": "effect on weight-bearing ratio", "setting": "[2]; s.c. 5 mg/kg", "value": "partial but significant increase"}]}
{"molecule": "CCCCCCCCCCCCCC(=O)N(CCOCCOCCC(=O)N[C@@H](Cc1c[nH]cn1)C(=O)N[C@@H](Cc1c[nH]c2ccccc12)C(=O)N[C@@H](CC(C)C)C(=O)N[C@@H](CCCCN)C(=O)N[C@H](C(=O)O)C(C)C)CCOCCOCCC(=O)N[C@@H](Cc1c[nH]cn1)C(=O)N[C@@H](Cc1c[nH]c2ccccc12)C(=O)N[C@@H](CC(C)C)C(=O)N[C@@H](CCCCN)C(=O)N[C@H](C(=O)O)C(C)C", "note": "[mPD5, myristoyl-NPEG4-(HWLKV)2]", "values": [{"measurement": "effect on limb-use score", "setting": "[1]; s.c. 10 μmol/kg", "value": "no effect"}, {"measurement": "effect on weight-bearing ratio", "setting": "[2]; s.c. 10 μmol/kg", "value": "no effect"}]}
